Patent EP0832891B1, “Dihydrobenzo (B) indeno (2,1-D) thiophene compounds, intermediates, processes, compositions, and methods” (ELI LILLY AND COMPANY, priority 1996, dated 1998)
Marks after values point to notes of the source that are not given here.

Key:
Eosinophil peroxidase = tested on: Eosinophil peroxidase; parameters: species or system Sprague Dawley rats; conditions: rat, in vivo
Description: (§1) Seventy-five day old female Sprague Dawley rats (weight range of 200 to 225g) were obtained from Charles River Laboratories (Portage, MI). The animals were either bilaterally ovariectomized (OVX) or exposed to a Sham surgical procedure at Charles River Laboratories, and then shipped after one week. Upon arrival, they were housed in metal hanging cages in groups of 3 or 4 per cage and had ad libitum access to food (calcium content approximately 0.5%) and water for one week. Room temperature was maintained at 22.2° ± 1.7° C with a minimum relative humidity of 40%. The photoperiod in the room was 12 hours light and 12 hours dark.
Dosing Regimen Tissue Collection. After a one week acclimation period (therefore, two weeks post-OVX) daily dosing with test compound was initiated. […] The animals were then sacrificed by asphyxiation with CO2, the uterus was removed through a midline incision, and a wet uterine weight was determined.
Uterine Eosinophil Peroxidase (EPO) Assay. […] Upon addition of 0.01% hydrogen peroxide and 10 mM O-phenylenediamine (final concentrations) in Tris buffer, increase in absorbance was monitored for one minute at 450 nm. […] The maximal velocity of a 15 second interval was determined over the initial, linear portion of the reaction curve.

ovariectomized rats [1] = assay: Serum cholesterol analysis in ovariectomized rats; type: in vivo, Sprague Dawley rats; conditions: for Serum Cholest. % Decrease: daily for 4 days, versus ovariectomized controls
Description: (§2) In the examples illustrating the methods, a postmenopausal model was used in which effects of different treatments upon circulating lipids were determined.
as §1
(§3) Dosing Regimen Tissue Collection. After a one week acclimation period (therefore, two weeks post-OVX) daily dosing with test compound was initiated. 17α-ethynyl estradiol or the test compound were given orally, unless otherwise stated, as a suspension in 1% carboxymethylcellulose or dissolved in 20% cyclodextrin. Animals were dosed daily for 4 days. Following the dosing regimen, animals were weighed and anesthetized with a ketamine: xylazine (2:1, V:V) mixture and a blood sample was collected by cardiac puncture. The animals were then sacrificed by asphyxiation with CO2, the uterus was removed through a midline incision, and a wet uterine weight was determined.
Cholesterol Analysis. Blood samples were allowed to clot at room temperature for 2 hours, and serum was obtained following centrifugation for 10 minutes at 3000 rpm. Serum cholesterol was determined using a Boehringer Mannheim Diagnostics high performance cholesterol assay. Briefly the cholesterol was oxidized to cholest-4-en-3-one and hydrogen peroxide. The hydrogen peroxide was then reacted with phenol and 4-aminophenazone in the presence of peroxidase to produce a p-quinone imine dye, which was read spectrophotemetrically at 500 nm. Cholesterol concentration was then calculated against a standard curve.

ovariectomized rats [2] = tested on: ovariectomized rats; parameters: species or system Sprague Dawley rats; conditions: rat, in vivo, po, 0.1 mg/kg/day
Description: as §2, §1
as §3, with “Following the dosing regimen, animals were weighed and anesthetized with a ketamine: xylazine (2:1, V:V) mixture and a blood sample was collected by cardiac puncture.” left out

[3] = tested on: MCF-7 breast adenocarcinoma cells; assay: MCF-7 Proliferation Assay (tritiated thymidine uptake); type: cell-based; conditions: Homo sapiens, MCF7; MCF-7 cells, 48 hours with drug, tritiated thymidine pulse 4 hours
Description: MCF-7 breast adenocarcinoma cells (ATCC HTB 22) were maintained in MEM (minimal essential medium, phenol red-free, Sigma, St. Louis, MO) supplimented with 10% fetal bovine serum (FBS) (V/V), L-glutamine (2 mM), sodium pyruvate (1 mM), HEPES {(N-[2-hydroxyethyl]piperazine-N'-[2-ethanesulfonic acid]10 mM}, non-essential amino acids and bovine insulin (1 µg/mL) (maintenance medium). Ten days prior to assay, MCF-7 cells were switched to maintenance medium supplemented with 10% dextran coated charcoal stripped fetal bovine serum (DCC-FBS) assay medium) in place of 10% FBS to deplete internal stores of steroids. MCF-7 cells were removed from maintenance flasks using cell dissociation medium (Ca++/Mg++ free HBSS (phenol red-free) supplemented with 10 mM HEPES and 2 mM EDTA). Cells were washed twice with assay medium and adjusted to 80,000 cells/mL. Approximately […] (8,000 cells) were added to flat-bottom microculture wells (Costar 3596) and incubated at 37° C in a 5% CO2 humidified incubator for 48 hours to allow for cell adherence and equilibration after transfer. Serial dilutions of drugs or DMSO as a diluent control were prepared in assay medium and […] to triplicate microcultures […]. […] Samples were counted by liquid scintillation using a Wallace BetaPlace β counter.

| SMILES | Uterine Eosinophil (Vmax) (Eosinophil peroxidase) | eosinophil infiltration into the uterus (result in words) (Eosinophil peroxidase) | Serum Cholest. % Decrease (ovariectomized rats [1]; 0.1 mg/kg PO) | serum cholesterol (result in words) (ovariectomized rats [1]; compared to ovariectomized control animals, EE2 orally at 0.1 mg/kg/day) | uterine weight (result in words) (ovariectomized rats [2]) | EC50 [3] [nM] | Serum Cholest. % Decrease (ovariectomized rats [1]; 1 mg/kg PO) | Serum Cholest. % Decrease (ovariectomized rats [1]; 10 mg/kg PO) |
| --- | --- | --- | --- | --- | --- | --- | --- | --- |
| C#C[C@]1(O)CC[C@H]2[C@@H]3CCc4cc(O)ccc4[C@H]3CC[C@@]21C [EE2, 17α-ethynyl estradiol, reference compound] | 357.3* | substantial, expected increase in eosinophil infiltration | 95.2* % | caused a decrease in serum cholesterol | substantially greater than the uterine weight of ovariectomized test animals |  |  |  |
| Oc1ccc2c(c1)S[C@H]1c3ccccc3[C@@H](c3ccc(OCCN4CCCCC4)cc3)[C@@H]21 [Example 3] |  |  | 12.0% |  |  | 100 | 35.7* % | 65.0* % |
